Assay results from US10709745B2, “Tropic cell based virotherapy for the treatment of cancer” (priority 2013, dated 2020).

What was measured:
[1] = tested on: U87MG intracranial glioma xenografts; experiment: U87MG intracranial xenograft, TMZ and CRAd-S-pk7 combination survival; format: in vivo, mice
Protocol: FIGS. 11A, 11B and 11C show in vivo anti-tumor activity of CRAd-S-pk7 in combination with TMZ according to one embodiment. (FIG. 11A) Five consecutive injections of TMZ at 70 mg/kg/day (▾) achieve 100% survival for 80 days post U87MG implantation, whereas 5 TMZ injections at 10 mg/kg/day (∘) had significant increase in survival compared to mock treatment ( )(p<0.05).
Because temozolomide (TMZ) is the standard of care for patients with GBM, the efficacy of TMZ and CRAd-S-pk7 combination was evaluated in vivo in mice with U87MG intracranial (i.c.) glioma xenografts. To employ a dose that resembles the partial therapeutic effect of TMZ seen in the clinical scenario, different doses of TMZ were tested. Based on those studies, a dose of 10 mg/kg/day×5 days of intraperitoneal (i.p.) TMZ was chosen to study the efficacy of a TMZ and CRAd-S-pk7 combination treatment, since this dose led to an increase in survival but remained non-curative (FIG. 11A) (log-rank test, p<0.05). Additionally, different doses of i.c. CRAd-S-pk7 injections were tested to investigate which dose provides an increase in survival that could be further enhanced by the addition of co-adjuvant TMZ. A dose of 3×10^9 vp/mouse×2 injections of CRAd-S-pk7 was chosen for testing the therapeutic effects of TMZ+CRAd-S-pk7 combination, since it led to a partial efficacy that could be further enhanced (FIG. 11B) (log-rank test p<0.05).
Based on the above findings, the combination of TMZ and CRAd-S-pk7 was tested for efficacy in terms of survival (FIG. 11C). The combination of TMZ (10 mg/kg/day×5) plus two i.c. injections of CRAd-S-pk7 3×10^9 vp/mouse led to a 90% of long term survivors (>90 days) (LTS). […] Consistent with the finding of an additive cytotoxic effect of TMZ and CRAd-S-pk7 in vitro experiments, this treatment combination led to an improved survival in mice bearing intracranial human glioma xenografts.

NSCs (HB1.F3-CD) = experiment: CRAd-S-pk7 replication in NSCs treated with XRT-TMZ (E1A qPCR, titer); format: cell-based, human; details: day 4; TMZ 100 µM
Protocol: FIGS. 41A, 41B and 41C show evaluation of CRAd-Survivin-pk7 (CRAd-S-pk7) replication in neural stem cells (NSCs) treated with XRT-TMZ according to one embodiment. Viral replication of CRAd-S-pk7 was measured by quantitative real-time polymerase chain reaction and presented as a number of viral E1A copies per nanogram of DNA from infected NSCs. (FIG. 41A, 41B): Viral replication was evaluated daily up to 96 hours after treatment with 0, 10, 50, or 100 µM TMZ (FIG. 41A) and 0, 2, or 4 Gy of XRT (FIG. 41B). (FIG. 41C): CRAd-S-pk7 viral titer levels 96 hours after XRT-TMZ treatment of infected NSCs. […] Abbreviations: DMSO, dimethyl sulfoxide; IU, infectious units; TMZ, temozolomide; XRT, radiation therapy.
To detect the level of viral replication, NSCs were infected with 50 IU of CRAd-S-pk7 and treated with XRT-TMZ. […] Adenoviral E1A gene expression was quantified via qRTPCR using iQ SYBR Green supermix (Bio-Rad, Hercules, Calif., http://www.bio-rad.com), using primers and protocol previously described (Sonabend et al. 2009). The quantification of infectious viral progeny of NSCs was conducted using the Adeno-X rapid titer kit protocol (Clontech, Mountain View, Calif., http://www.clontech.com) as described elsewhere (Thaci et al. 2012). The titration unit (IU/ml) values quantified through this protocol are similar to plaque-forming units. […]

[2] = human, in vivo; cited from earlier work

## Cn1nnc2c(C(N)=O)ncn2c1=O [TMZ, temozolomide]
[1]; TMZ 10 mg/kg/day×5 alone or CRAd-S-pk7 3×10^9 vp/mouse×2 alone
  median survival: 51 days
[1]; TMZ 10 mg/kg/day×5 i.p., CRAd-S-pk7 3×10^9 vp/mouse×2 i.c., alone or combined
  long term survivors (>90 days) (LTS): 7%
[1]; TMZ 70 mg/kg/day, five consecutive injections
  survival for 80 days post U87MG implantation: 100%
NSCs (HB1.F3-CD)
  decrease in E1A copies per nanogram of DNA: 3 fold
[2]
  intratumoral concentration (likely range): 5 to 50 µM
  peak concentration in patient's blood: 50 µmol/L
  peak concentration in the cerebral spinal fluid: 5 µmol/L
